According to patent publication US12565515B2, “1,2,4-oxadiazole compounds as inhibitors of CD47 signalling pathways” (AURIGENE ONCOLOGY LIMITED, priority 2018, dated 2026):

Tests used:
[1] = tested on: H929 cells; assay: FACS based phagocytosis assay; format: cell-based; details: NCI-H929, human macrophages, CFSE stained H929 cells, flow cytometry, normalized to positive control B6H12
Procedure: (§1) DPBS (Gibco), RPMI 1640 WITH HEPES AND L-GLN-500 ML (Lonza), Recombinant Human M-CSF (R& D systems), CD47 Monoclonal Antibody (B6H12), Functional Grade antibody (Ebioscience), Mouse IgG1 kappa Isotype Control, Functional Grade (Ebioscience), Vacutainer (multiple sample luer adapter) (BD), Vacutainer (sodium heparin (NH) 158USP units, Blood collection tubes (BD), Histopaque (density—1.077 gm/ml) (SIGMA 1077), Trypan Blue solution (SIGMA-T8154), Hemacytometer (Bright line-SIGMA Z359629), Scalp vein infusion set (JMS), Cell Dissociation buffer (Gibco), 48-well sterile flat bottom plates (Corning), Luciferase expressing Raji cells (Generated in house by trasfection of luciferase gene in Raji cells) Luminometer, Hygromycin B (Invitrogen), Bright Glo luciferase assay system (Promega), 96 well plate, polystyrene, high band, white flat bottom wells (Sigma CLS3912), APC anti-mouse/human CD11b Antibody (Biolegend), H929 cells, CFSE (Ebioscience), Fetal Bovine Serum (Gibco Cat #: 10437028), Round-Bottom FACs Tubes (BD), Flowcytometer BD FACS Verse, 96 well plates, ultra-low attachment (Corning).
Monocytes were isolated from blood of healthy donor and cultured for 6-8 days using 10% RPMI (Roswell Park Memorial Institute) media and recombinant human M-CSF to differentiate into macrophages. Media was changed every alternate day. Simultaneously, H929 cells were cultured in 10% RPMI media with 50 μg/mL of betamercaptoethanol in tissue culture flask. On the day of phagocytosis adherent macrophages were serum starved for 2 hours in RPMI media. Simultaneously H929 cells were stained with 0.3 μM CFSE stain. After washing, 0.2 million CFSE stained H929 cells were incubated with anti-human CD47 or Mouse IgG1 K Isotype Control antibody or various conc of test item in serum free media for 30 min at 37° C. After 2 hours of serum starvation macrophages were dissociated with cell dissociation buffer and collected by gentle scraping and added at conc of 0.05 million per well into respective wells of the ultra-low attachment 96 well plate seeded with H929 cells. Phagocytosis was allowed for 2 hours. After 2 hours, cells were washed with PBS and stained with 1 μL of anti-human CD11b-APC antibody prepared in 100 μL of PBS for 30 min in 4° C. in dark. Cells were further washed and fixed in 100 μL of fixation buffer until acquired by Flow cytometry. The extent of phagocytosis of H929 cells by human macrophages was measured by acquiring the samples by Flow cytometry. Samples acquired by Flow cytometry were analysed by using FlowJo software. Each experimental condition was carried out in duplicate. Cells positive for FITC (CFSE) and CD11b-APC were considered as phagocytosed macrophages. Raw data of % phagocytosis by macrophages were obtained in the form of excel sheet from FlowJo. % phagocytosis from isotype control (background phagocytosis) was subtracted from % phagocytosis of macrophages treated with compound as well as other controls to get corrected phagocytosis values. Corrected phagocytosis values of compound treated samples were normalized with phagocytosis of positive control (B6H12) using the formula: % normalized phagocytosis=[(corrected % phagocytosis of compound)/(corrected phagocytosis of B6H12)*100]

[2] = tested on: luciferase expressing Raji cells; assay: Luciferase based phagocytosis assay; format: cell-based; details: human monocyte-derived macrophages, luminescence, read-out: % normalized phagocytosis (at 10 μM)
Procedure: as §1
In vitro phagocytosis assay was performed to evaluate the ability of test item to enhance the phagocytic activity of macrophages. Monocytes were isolated from blood of healthy donor and cultured for 6-8 days using 10% RPMI (Roswell Park Memorial Institute) media and recombinant human M-CSF to differentiate into macrophages. Media was changed every alternate day. After differentiation, adherent macrophages were collected by gentle scraping and cultured in 10% RPMI overnight at a density of 0.1 million per well in 48 well tissue culture plate. Simultaneously, luciferase expressing Raji cells were cultured in 10% RPMI media with 100 μg/mL of hygromycin B in tissue culture flask. On the day of phagocytosis, macrophages were serum starved for 2 hours. 0.4 million luciferase expressing Raji cells per well were incubated with anti human CD47 purified B6H12 or Mouse IgG1 K Isotype Control antibody or various concentrations of test item in serum free media for 30 min at 37° C. and added into respective well of the 48 well plate seeded with macrophages. After 2 hours, cells were washed twice with PBS and 100 μL of serum free RPMI was added to each well. Additionally, 50 μL Bright Glow reagent was added to each well followed by mixing of cells and incubated for 5 min in dark. Luminescence reading was taken using plate reader after transferring the content of each well to white plate. Intensity of luminescence indicated the extent of phagocytosis. Each experimental condition was carried out in duplicate.

[3] = tested on: A20 syngeneic lymphoma; assay: Efficacy in A20 syngeneic lymphoma model; format: in vivo; details: for TGI (%): per orally
Excerpt: Female Balb/c (BALB/cAnNTac) mice (6-8 weeks-old) bred in-house were used in this efficacy study in the A20 syngeneic lymphoma model. Animals were marked individually with tail marks and kept in cages that were identified by a cage card showing the study code, date of experimentation, sex and number of animals. During the experiment, the animals were weighed daily. A20 cell line (B-cell lymphoma line derived from a spontaneous reticulum cell neoplasm found in an old BALB/cAnN mouse) was procured from ATCC. When the mean tumor volumes reached approximately 75 mm^3, the animals were randomized based on tumour volumes into four groups of twelve animals in each group. Following randomization into various treatment groups, dosing with vehicle and Compound 6 was initiated. All treatments were administered per orally at a twice daily dosing frequency using a dose of 3 mg/kg, 10 mg/Kg and 30 mg/Kg. The treatment was continued for a period of 21 days after which the overall efficacy and tolerability were evaluated based on tumor volume and body weight changes observed during the treatment period. On treatment day 21, animals from all the treatment groups were sacrificed in sequential order at 1 hour after last dose administration.
Individual animal body weights were recorded daily before the administration of test item throughout the experimental period. […] The tumor volumes were measured in all treatment group animals thrice a week (once every 2-3 days) using a digital Vernier callipers. From an ethical viewpoint, any treatment/control group with a mean tumor weight in excess of 10% of animal body weight were humanely sacrificed. As a measure of efficacy, the % T (treatment)/C(control) and % TGI (% Tumor growth inhibition) values were calculated. Graphs and statistical analysis were performed using GraphPad Prism®, Version 7.0. For analysis of tumor volume data, statistical comparison was done on Day 21 for all groups using One-way ANOVA with Dunnett's multiple comparison test. All analyses and comparisons was evaluated at the 5% (p<0.05) level. A “p” value less than 0.05 was considered as significant.

NC(=O)CC[C@H](N)c1noc(CNC(=O)N2CCCC2C(=O)O)n1 (stereo partly shown) [Compound 6]
activation at 10 µM [1]: 74%
activation at 10 µM [2]: 66%
TGI (%) ([3]; 3 mg/kg (bid), 21 days, Balb/c mice): 53%
TGI (%) ([3]; 10 mg/kg (bid), 21 days, Balb/c mice): 64%
TGI (%) ([3]; 30 mg/kg (bid), 21 days, Balb/c mice): 67%
tolerability (body weight, clinical signs of toxicity) ([3]; 3, 10 and 30 mg/kg bid per orally, 21 days, Balb/c mice): well tolerated without any signs of body weight loss and/or clinical signs of toxicity
antitumor efficacy, significance of tumor growth inhibition ([3]; all the tested dose levels (3, 10, 30 mg/kg bid), Day 21, one-way ANOVA): statistically significant tumor growth inhibition (TGI) at all the tested dose levels
